From patent US8236984B2, “Compound and use thereof in the treatment of amyloidosis” (Pentraxin Therapeutics Ltd., priority 2007, dated 2012)

Experiments:
[1] = target: T1, native wild type transthyretin (Homo sapiens, UniProt P02766); experiment: Gel filtration (Superdex 200) of transthyretin-ligand complexes; assay type: binding; settings: for A280/A330 ratio of main component eluting at 14.4 ml: 2 nanomoles transthyretin incubated 1 h with 1 μl of 4 mM ligand in DMSO, PBS; for dissociation of ligand from the complex during gel filtration: after 100 volume solvent exchanges
T1 construct: isolated from pooled normal human plasma, was obtained from Scipac; purchased Scipac Ltd, Sittingbourne, Kent, UK; host or cells: pooled normal human plasma
Description: 1.3 Gel filtration. Native transthyretin was eluted with either PBS or 150 mM ammonium bicarbonate (pH 7.6) from a Superdex 200 (30×1.0 cm) column, run on an ÅKTA Explorer system, as a UV absorbing peak (A280/A330˜30 to 50:1) with Ve 14.4 ml (FIG. 1). A minor (<5%) higher molecular weight component eluting at 12.5 ml was always seen.
3.1.1. Binding of 4ajm15 and mds84 by transthyretin. One μl (5.3 nmol) of a concentrated (5.3 mM) solution of 4ajm15 in DMSO was added to 3.8 nmol of transthyretin in 100 μl PBS (1.4 fold molar excess of ligand) and incubated at room temperature for 30 min. The sample was chromatographed on Superdex 200, where the transthyretin-4ajm15 complex eluted at 14.4 ml, with a reduced A280/A330 ratio (˜5:1) consistent with binding. A similar result was obtained with transthyretin and 4ajm15 when chromatography was undertaken in volatile ammonium bicarbonate buffer. A similar result was also obtained when mds84 (2 nmol) was first dried into a tube and then resuspended in 5 μl of DMSO before adding the protein solution. In further experiments, 2 nanomoles of native wild type transthyretin (Scipac) were incubated in 55 μl of PBS for 1 h with either 1 μl DMSO (control) or 1 μl of a 4 mM solution in DMSO of mds84 or 4ajm15. Samples were chromatographed on a Superdex 200 column (30×1 cm) in PBS at 0.5 ml/min, with 0.5 ml fractions collected (FIG. 1). […] The full UV spectra of the main components were determined in each case and were consistent with a transthyretin:ligand ratio of ˜1:0.9.

wild type transthyretin [2] = target: T2, wild type transthyretin (Homo sapiens, UniProt P02766); experiment: Displacement of 125I-T4 from transthyretin in whole serum; assay type: binding; settings: mean
Description: 3.2.3.2. Quantitative studies in serum. […] The immunoprecipitate was recovered by centrifugation, washed twice with 0.1 M Tris, 0.1 M NaCl, pH 8.0 and counted.

[3] = target: T3, L55P variant transthyretin (Homo sapiens, UniProt P02766, L75P); experiment: Inhibition of transthyretin aggregation at acidic pH (turbidity at 400 nm); assay type: biochemical
Description: 3.3.2 Inhibition of transthyretin aggregation by 4ajm15: In pilot experiments, transthyretin aggregates were formed from wild type transthyretin (3.6 μM) after incubation at acidic pH for 3 d at 37° C. (Colon and Kelly, 1992). The efficacy of 4ajm15 as an inhibitor of transthyretin aggregate formation was then compared with other transthyretin ligand compounds. […] After 30 min at 37° C., the pH was adjusted to pH 4.4 (with 0.2 M sodium acetate buffer pH 4.0), and the ˜1 ml mixtures were incubated unstirred for 3 d at 37° C.
Using the same method the activities of mds84 and 4ajm15 as inhibitors of the aggregation of both wild type transthyretin and the most aggressively aggregating transthyretin variant, L55P, were evaluated in triplicate with both proteins at 3.6 μM and with one (3.6 μM) or 3 equivalents (10.8 μM) of each ligand. Wild type transthyretin was studied at pH 4.4 and L55P at pH 5.0. […] Mean values and standard deviations are shown in Table 2 and in FIG. 4, where results with 1:1 molar ratio are shown cross hatched and 3:1 molar ratio in open bars.

[4] = target: T3, L55P variant transthyretin; experiment: Mass spectrometric analysis of subunit exchange; assay type: biochemical; design: made in house; settings: for subunit exchange of L55P transthyretin: in words
Description: 4.2 Mass spectrometric analysis of subunit exchange. Recombinant wild type, L55P and V30M transthyretin variants were biosynthetically labelled with isotopes [^15N] and [^15N, ^13C] as previously described (Keetch C A et al, 2005). Immediately prior to analysis, proteins were buffer exchanged into 20 mM ammonium acetate, pH 7.0 using Micro Biospin columns (Bio-Rad, UK). The subunit composition of transthyretin was monitored as a function of time by incubating an equimolar solution (4.4 μM) of [^15N] and [^15N, ^13C] labelled proteins in the presence of 2-fold molar excess of 4ajm15 in DMSO or 2.5% DMSO alone as a control. Each experiment was carried out in triplicate at room temperature and at 4° C. as well, since it is known that subunit exchange is accelerated at low temperatures. Nanoflow ESMS was performed on a QToF2 instrument (Waters/Micromass UK, Ltd.) modified for high mass operation (Sobott et al, (2002)) and calibrated externally using caesium iodide (100 mg/ml). Each solution, 1.5 μl, was electrosprayed from gold coated borosilicate capillaries prepared in-house as described (Nettleton E J, et al, 1998). To preserve the non-covalent interactions in the transthyretin tetramer, the MS parameters applied were: capillary voltage 1.6 kV, sample cone 160 V, extractor cone 20 V, ion transfer stage pressure 7.0×10 ^−3 mbar, quadrupole analyzer pressure 9.5×10^−4 mbar and ToF analyzer pressure 1.7×10^−6 mbar. Data were processed with MassLynx software (Waters/Micromass UK, Ltd.) and are presented with minimal smoothing and without background subtraction.
This most unstable transthyretin variant rapidly undergoes spontaneous and extensive subunit exchange, as illustrated in FIG. 8. FIGS. 9-11 show the effects of decreasing molar ratios of mds84 on inhibition of subunit exchange. […] At lower molar ratios of mds84 some exchange takes place but the transthyretin molecules which bind mds84 are still completely stabilized.

wild type transthyretin [5] = target: T2, wild type transthyretin; experiment: Differential scanning calorimetry of transthyretin with ligand; assay type: binding; design: isolated from pooled normal human plasma, was obtained from Scipac; purchased Scipac Ltd, Sittingbourne, Kent, UK; host or cells: pooled normal human plasma
[6] = five fold molar excess of ligand

A280/A330 ratio of main component eluting at 14.4 ml [1]	dissociation of ligand from the complex during gel filtration [1]	IC50 (wild type transthyretin [2]) [µM]	aggregation of L55P in the presence of ligand ([3]; L55P, pH 5.0, results not shown, in words)	subunit exchange of L55P transthyretin [4]	midpoint of thermal denaturation (Tm) in the presence of ligand (wild type transthyretin [5]; preliminary DSC, 0.02 mM tetramer, 0.2 mM ligand, PBS pH 7.4, 2% DMSO, transthyretin alone 99.5) [°C]	Aggregation of transthyretin, Mean (1:1) ([3]; L55P 3.6 μM, ligand 3.6 μM, pH 5.0)	Aggregation of transthyretin, Mean (3:1) ([3]; L55P 3.6 μM, ligand 10.8 μM, pH 5.0)	ligand bound per mole of transthyretin for complete stabilization ([4]; L55P variant, decreasing molar ratios of ligand)	Tm of wild type transthyretin with the ligand (wild type transthyretin [5]; [6]) [°C]	increase in Tm of wild type transthyretin (wild type transthyretin [5]; [6]) [°C]	SMILES
~4.6	negligible dissociation	27	identical to those with mds84	Exactly the same effect	103.6	–	–	–	–	–	O=C(O)c1ccccc1Nc1cc(Cl)c(OCCCCCCCCCCCOc2c(Cl)cc(Nc3ccccc3C(=O)O)cc2Cl)c(Cl)c1 [4ajm15, 2,2′-(4,4′-(undecane-1,11-diylbis(oxy))bis(3,5-dichloro-4,1-phenylene))bis(azanediyl)dibenzoic acid]
~4.6	negligible dissociation	11.9	–	completely inhibits all subunit exchange	–	17 per cent of control with DMSO alone	9.9 per cent of control with DMSO alone	one mole	107.5	6.2	O=C(O)c1ccccc1Nc1cc(Cl)c(OCCCCCCCOc2c(Cl)cc(Nc3ccccc3C(=O)O)cc2Cl)c(Cl)c1 [mds84, 2,2′-(4,4′-(heptane-1,7-diylbis(oxy))bis(3,5-dichloro-4,1-phenylene))bis(azanediyl)dibenzoic acid]
